This is an account of results in patent US12331051B2 (priority 2021, dated 2025).

Molecules are shown by their SMILES.

In one experiment the test system is DOI induced HTR in mice. The experiment in a line: Blockade of DOI-induced HTR. Type of experiment: in vivo, mouse. The following applies: 10 min before DOI 1 mg/kg. How it is done:
The “E559 polymorph” was studied for its effect to block the hallucinogenic (HTR) response of a psychedelic 2,5-Dimethoxy-4-iodoamphetamine (DOI) in the mouse HTR model. DOI is a serotonergic hallucinogenic compound used commonly as a positive control in HTR model [Halberstadt et al., Psychopharmacology (Berl). 2013 June; 227(4):727-39]. An HTR study was performed as described in Example 2 as follows: Five groups of mice (n=6-7 per group, 31 total) were either treated with vehicle (saline) or with the “E559 polymorph” at 0.1, 0.3, 1, or 3 mg/kg. Ten minutes later, all of the mice were injected with DOI (1 mg/kg) and then HTR activity was assessed for 30 min. […] All doses of the “E559 polymorph” were effective in blocking the response to DOI in a dose-dependent manner. The data are represented as group means±standard deviation and asterisks indicate statistical significances (*p<0.0001) compared to the vehicle (saline) control (0 mg/kg in FIG. 13A).
The time course of the blockade of the DOI induced HTR by the “E559 polymorph” was examined. An HTR study was performed as described in Example 2 as follows: Two groups of mice (n=6 per group) were either treated with vehicle or with the “E559 polymorph” at 1 mg/kg. Ten minutes later, all of the mice were injected with DOI (1 mg/kg) and then HTR activity was assessed for 30 min. […] The data are represented as group means±standard deviation and asterisks indicate statistical significances (*p<0.0001) compared to the vehicle (saline) control (0 mg/kg in FIG. 13B). The time course of the blockade of the DOI induced HTR by the “E559 polymorph” mirrors the time course of the pharmacokinetics of the “E559 polymorph” in the mouse brain tissue (shown in Example 3).

The next experiment deals with stress naive mice. The experiment in a line: Open field test (OFT), stress naive mice. In kind it is in vivo, mouse. As to the method:
In brief, stress naive mice were treated (IP injection) with either saline (control) or single dose of the “E559 polymorph” at 0.3, 1, or 3 mg/kg dose levels and were evaluated 24 hours (OFT) and […] after treatment. The OFT was performed described in Example 13. The FST was performed as previously described in (Aguilar-Valles et al., Nature, 2021, 590, p315-319). Briefly FST was performed 24-hour post treatment by placing the mice (one by one) in a 4-liter wide-mouthed flask of 35° C. water. Mice activities were recorded for 6 minutes and assessed for total time the animal remains immobile, a sign of depressive-like behavior. FIG. 25A depicts the study design where female/male mice (n=10/group/sex) were treated by IP injection with the “E559 polymorph” or vehicle (saline) followed by open field and force swim test 24 hours post treatment. FIGS. 25B and 25E represent the total distance travelled in the open field test 24 hours after vehicle or the “E559 polymorph” in female and male mice, respectively. FIGS. 25C and 25F represent the time in the center of the open field by female and male mice, respectively. FIGS. 25D and 25G represent the immobility time during the last 4 minutes of the forced swim test in female and male mice, respectively. Horizontal lines represent the mean±standard error of the mean (S.E.M.) and asterisks indicate statistical significances.

A further experiment addresses T1, D2S dopamine receptor (Homo sapiens, UniProt P14416).
T1 construct: expressed in transfected cells; host or cells: HEK-293
The experiment in a line: Functional assay in HEK-293 cells (cAMP). Type of experiment: cell-based. As to the method:
(§1) Neuro-receptor binding and functional effects of the “E559 polymorph” was examined by analyzing binding affinity [Ki (nM)], functional agonist activity [EC50 (nM)], and functional antagonist activity [IC50 (nM)] against a panel of key receptors in neurophysiological disorders. Binding and functional assays were performed at “E559 polymorph” concentrations of 0.0003, 0.003, 0.01, 0.03, 0.1, 0.3, 1, and 10 μM. In binding assays, cell membrane homogenates, expressing each receptor target, were incubated with the corresponding radio-ligand in absence or presence of several concentration of the “E559 polymorph” compound. The measurement of binding affinity of the “E559 polymorph” is represented in TABLE XIII by Ki (nM) which was calculated as percent inhibition of the binding of a radioactively labeled reference ligand at each receptor. In functional assays the HEK-293 cells expressing each receptor target were suspended in buffer and distribute in microplates and incubated for 30 minutes at room temperature or 37° C. in the presence of buffer alone (basal control), the reference agonist or antagonist, or the “E559 polymorph. Following incubation, the cells were lysed and the appropriate fluorescent probe (Ca2+ flux, cAMP, or IP1) were added for 60 minutes to measure the fluorescence transfer at the appropriate wavelength using a microplate reader. The cellular agonist effect (EC50) was calculated as a percent of control response to a known reference agonist and the cellular antagonist effect (IC50) was calculated as a percent inhibition of control reference agonist response for each receptor.

Experiment [1] addresses T2, Beta 2 adrenergic receptor (Homo sapiens, UniProt P07550).
T2 construct: expressed in transfected cells; host or cells: HEK-293
The experiment is described as follows: Functional assay in HEK-293 cells (cAMP). In kind it is cell-based. As to the method:
as §1

For experiment [2], the target named is T3, Alpha 2C adrenergic receptor (Homo sapiens, UniProt P18825).
T3 construct: expressed in transfected cells; host or cells: HEK-293
T3 sequence (P18825 1-462): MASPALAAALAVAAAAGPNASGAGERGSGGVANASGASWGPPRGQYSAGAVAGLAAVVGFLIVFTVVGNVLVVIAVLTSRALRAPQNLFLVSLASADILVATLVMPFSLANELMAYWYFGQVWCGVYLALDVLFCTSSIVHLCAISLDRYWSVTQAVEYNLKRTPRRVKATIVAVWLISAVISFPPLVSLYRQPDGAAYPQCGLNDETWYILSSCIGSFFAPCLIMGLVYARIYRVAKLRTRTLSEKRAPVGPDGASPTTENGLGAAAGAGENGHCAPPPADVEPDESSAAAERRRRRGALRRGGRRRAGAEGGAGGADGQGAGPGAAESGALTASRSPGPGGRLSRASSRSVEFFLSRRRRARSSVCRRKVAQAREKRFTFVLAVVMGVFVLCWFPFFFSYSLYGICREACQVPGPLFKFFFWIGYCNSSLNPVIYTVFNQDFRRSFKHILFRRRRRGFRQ
The experiment is described as follows: Functional assay in HEK-293 cells (cAMP). In kind it is cell-based. How it is done:
as §1

Experiment [3] addresses ADRa1B (α1B adrenergic receptor) (Homo sapiens, UniProt P35368). The experiment is described as follows: BRET-based G protein dissociation assay. Type of experiment: cell-based. On the technique in general: In BRET a luciferase serves as donor, and the signal depends on an acceptor being close.

T2 sequence (P07550 whole entry): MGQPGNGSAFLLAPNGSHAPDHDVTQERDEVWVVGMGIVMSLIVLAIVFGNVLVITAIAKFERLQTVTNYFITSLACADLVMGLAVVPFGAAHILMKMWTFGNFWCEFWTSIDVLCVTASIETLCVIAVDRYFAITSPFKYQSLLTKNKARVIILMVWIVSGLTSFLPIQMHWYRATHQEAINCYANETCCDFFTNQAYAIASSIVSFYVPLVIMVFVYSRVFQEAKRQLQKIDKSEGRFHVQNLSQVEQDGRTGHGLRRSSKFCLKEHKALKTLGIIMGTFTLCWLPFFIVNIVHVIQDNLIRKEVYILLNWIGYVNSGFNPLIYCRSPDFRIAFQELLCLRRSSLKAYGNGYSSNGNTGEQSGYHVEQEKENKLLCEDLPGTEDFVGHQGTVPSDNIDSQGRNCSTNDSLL
T1 sequence (P14416 1-414 isoform P14416-2): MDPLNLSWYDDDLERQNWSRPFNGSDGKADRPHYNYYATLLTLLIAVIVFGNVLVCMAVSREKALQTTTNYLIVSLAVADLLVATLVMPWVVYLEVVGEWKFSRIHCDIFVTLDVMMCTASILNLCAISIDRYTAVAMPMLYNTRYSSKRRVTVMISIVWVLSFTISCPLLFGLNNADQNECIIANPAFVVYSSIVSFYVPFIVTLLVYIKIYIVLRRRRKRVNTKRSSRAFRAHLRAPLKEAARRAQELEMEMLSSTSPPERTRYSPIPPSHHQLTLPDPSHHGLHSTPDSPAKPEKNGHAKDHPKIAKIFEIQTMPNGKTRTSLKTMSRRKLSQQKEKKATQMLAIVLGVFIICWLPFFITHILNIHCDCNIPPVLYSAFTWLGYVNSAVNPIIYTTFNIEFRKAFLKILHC
ADRa1B (α1B adrenergic receptor), sequence (P35368 whole entry): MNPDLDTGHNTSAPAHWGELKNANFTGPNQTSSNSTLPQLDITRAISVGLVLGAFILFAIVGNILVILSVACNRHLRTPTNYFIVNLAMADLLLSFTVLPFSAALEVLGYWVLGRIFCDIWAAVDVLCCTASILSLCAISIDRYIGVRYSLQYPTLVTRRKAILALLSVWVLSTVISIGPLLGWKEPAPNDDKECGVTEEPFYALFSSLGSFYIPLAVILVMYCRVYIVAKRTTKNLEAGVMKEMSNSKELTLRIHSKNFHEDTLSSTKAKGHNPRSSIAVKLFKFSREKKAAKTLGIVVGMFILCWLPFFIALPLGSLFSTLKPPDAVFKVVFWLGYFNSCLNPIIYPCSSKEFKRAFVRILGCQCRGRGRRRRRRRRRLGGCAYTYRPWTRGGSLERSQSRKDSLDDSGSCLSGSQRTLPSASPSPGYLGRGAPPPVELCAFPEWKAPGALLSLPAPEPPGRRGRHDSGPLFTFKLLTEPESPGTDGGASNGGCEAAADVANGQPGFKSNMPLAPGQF

As to `CCN(CC)C(=O)[C@@H]1C=C2c3cccc4[nH]c(Br)c(c34)C[C@H]2N(C)C1` [E559, (5R, 8R)-2-Bromo-9,10-didehydro-N,N-diethyl-6-methylergoline-8-carboxamide hemi-D-tartrate], in the experiment with DOI induced HTR in mice (1 mg/kg), the “blockade of DOI induced HTR, time course” value was “almost completely blocked the DOI induced HTR during the first 10 minutes” and the “time after which blockage of DOI induced HTR was no longer detected” value lay within 40 to 60 min. The “attenuation of DOI-induced HTR” value with DOI induced HTR in mice (0.1, 0.3, 1 or 3 mg/kg) is recorded as “significantly attenuated the ability of DOI to induce the HTR in mice”. Besides, the “increase in exploration of the arena center (time in center), maximal effect” value in the experiment with stress naive mice (female mice, IP 1 mg/kg, 24 hours after treatment) stood at 88.18 ± 18.89 s. In the experiment with stress naive mice (female mice, IP 1 and 3 mg/kg, 24 hours after treatment), the “exploration of the arena center” value is listed as “increased exploration of the arena center”. Also, the “increased exploration of the stressogenic area of the open field” value in the experiment on stress naive mice (male mice, IP 0.3, 1 or 3 mg/kg) is “not evident in male mice”. Moreover, on D2S dopamine receptor, the EC50 was greater than 10000 nM and the IC50 was greater than 10000 nM. In experiment [1], this molecule displayed an EC50 greater than 10000 nM and an IC50 of 360 nM. In experiment [2], the response was half-maximal at 730 nM (EC50) and the half-inhibitory concentration (IC50) was greater than 10000 nM. Further, the Kb in experiment [3] is 55.9 nM.

For orientation: EC50 means the concentration at which the effect is half-maximal. Read a high EC50 as a need for much substance. What is called IC50 is the concentration at which inhibition is half-maximal. A high value points to weaker potency in that assay.
